# Source: ChEMBL document CHEMBL5512640, “Discovery of novel itaconimide-based derivatives as potent HDAC inhibitors for the efficient treatment of prostate cancer” (Eur J Med Chem, 2024)
# What was measured:
# Histone deacetylase 4 = Histone deacetylase 4 (Homo sapiens, UniProt P56524); assay: Inhibition of human HDAC4 incubated for 10 mins followed by fluorogenic substrate addition by fluorescence based analysis
# [1] = target: Polyamine deacetylase HDAC10 (Homo sapiens, UniProt Q969S8); assay: Inhibition of human HDAC10 incubated for 10 mins followed by fluorogenic substrate addition by fluorescence based analysis
# Sequence of Polyamine deacetylase HDAC10 (Q969S8 whole entry): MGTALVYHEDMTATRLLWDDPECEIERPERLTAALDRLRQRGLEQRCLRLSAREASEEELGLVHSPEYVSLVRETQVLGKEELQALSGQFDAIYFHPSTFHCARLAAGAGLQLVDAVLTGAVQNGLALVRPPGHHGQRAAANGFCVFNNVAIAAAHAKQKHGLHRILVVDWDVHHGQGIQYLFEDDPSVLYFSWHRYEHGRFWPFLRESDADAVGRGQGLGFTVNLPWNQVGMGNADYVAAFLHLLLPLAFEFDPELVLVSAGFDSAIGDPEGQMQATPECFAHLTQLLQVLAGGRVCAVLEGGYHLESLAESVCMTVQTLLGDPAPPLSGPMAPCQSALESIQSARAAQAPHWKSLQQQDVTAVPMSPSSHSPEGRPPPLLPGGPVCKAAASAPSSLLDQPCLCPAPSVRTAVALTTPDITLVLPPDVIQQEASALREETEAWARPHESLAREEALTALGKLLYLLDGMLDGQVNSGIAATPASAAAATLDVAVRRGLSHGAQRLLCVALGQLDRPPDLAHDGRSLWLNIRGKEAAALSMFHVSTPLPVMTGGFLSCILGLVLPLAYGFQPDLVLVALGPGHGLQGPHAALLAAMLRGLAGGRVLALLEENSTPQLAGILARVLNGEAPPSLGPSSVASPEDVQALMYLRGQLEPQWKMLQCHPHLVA
# [2] = Toxicity in Balb/c mouse assessed as effect on body weight at 100 to 200 mg/kg, po measured upto 40 days; type: organism-based; conditions: in vivo, 960 h, dose 100-200 mg/kg, time < 40 day
# DU-145 = assay: Upregulation of Ac-H3 level in human DU-145 cells incubated for 24 hrs by Western blot analysis; type: functional, cell-based; conditions: dose 0.8-3.2 µM
# [3] = Acute toxicity in Sprague-Dawley rat assessed as effect on kidney at 500 to 4500 mg/kg, po measured after 15 days; type: organism-based; conditions: in vivo, 360 h, dose 500-4500 mg/kg, time 15 day
# [4] = AUC (0 to infinity) in Sprague-Dawley rat at 2 mg/kg, iv measured upto 24 hrs by LC-MS/MS analysis; type: ADME, organism-based; conditions: in vivo
# Histone deacetylase 5 = Histone deacetylase 5 (Homo sapiens, UniProt Q9UQL6); assay: Inhibition of human HDAC5 incubated for 10 mins followed by fluorogenic substrate addition by fluorescence based analysis
# Sequence of Histone deacetylase 5 (Q9UQL6 whole entry): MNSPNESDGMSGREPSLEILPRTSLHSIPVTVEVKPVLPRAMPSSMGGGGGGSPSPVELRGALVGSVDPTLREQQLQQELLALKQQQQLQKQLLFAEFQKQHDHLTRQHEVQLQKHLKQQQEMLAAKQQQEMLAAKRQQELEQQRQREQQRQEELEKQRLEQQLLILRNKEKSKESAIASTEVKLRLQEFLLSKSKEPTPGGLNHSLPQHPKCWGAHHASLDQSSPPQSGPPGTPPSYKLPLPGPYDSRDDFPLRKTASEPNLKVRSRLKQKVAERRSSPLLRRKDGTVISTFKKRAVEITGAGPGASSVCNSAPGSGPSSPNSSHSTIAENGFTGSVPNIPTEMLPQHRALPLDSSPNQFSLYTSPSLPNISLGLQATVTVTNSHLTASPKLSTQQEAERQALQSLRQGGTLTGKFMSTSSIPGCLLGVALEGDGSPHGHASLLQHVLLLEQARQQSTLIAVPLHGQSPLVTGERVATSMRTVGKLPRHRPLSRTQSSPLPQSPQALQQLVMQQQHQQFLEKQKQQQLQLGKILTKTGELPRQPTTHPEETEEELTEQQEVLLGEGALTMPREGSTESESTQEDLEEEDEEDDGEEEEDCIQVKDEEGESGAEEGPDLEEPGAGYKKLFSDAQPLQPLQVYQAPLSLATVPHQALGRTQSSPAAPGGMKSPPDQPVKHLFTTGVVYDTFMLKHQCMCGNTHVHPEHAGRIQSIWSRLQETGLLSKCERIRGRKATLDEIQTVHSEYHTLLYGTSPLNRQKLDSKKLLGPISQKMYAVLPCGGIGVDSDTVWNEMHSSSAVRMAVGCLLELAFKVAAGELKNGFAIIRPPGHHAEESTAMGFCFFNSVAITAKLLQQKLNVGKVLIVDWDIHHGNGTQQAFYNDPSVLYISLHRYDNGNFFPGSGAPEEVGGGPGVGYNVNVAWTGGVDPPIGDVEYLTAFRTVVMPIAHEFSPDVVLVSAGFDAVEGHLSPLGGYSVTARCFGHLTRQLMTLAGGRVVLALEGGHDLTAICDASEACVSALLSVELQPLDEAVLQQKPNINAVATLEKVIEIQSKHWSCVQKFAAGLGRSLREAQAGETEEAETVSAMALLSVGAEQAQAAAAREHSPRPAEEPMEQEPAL
# [5] = Acute toxicity in Sprague-Dawley rat assessed as pathological lesions at 500 to 4500 mg/kg, po measured after 15 days by H and E staining based analysis; type: organism-based; conditions: in vivo, 360 h, dose 500-4500 mg/kg, time 15 day
# [6] = Toxicity in Balb/c mouse assessed as effect on body weight at 100 mg/kg, po measured upto 40 days in presence of docetaxel; type: organism-based; conditions: in vivo, 960 h, time < 40 day
# [7] = Acute toxicity in Sprague-Dawley rat assessed as effect on lung at 500 to 4500 mg/kg, po measured after 15 days; type: organism-based; conditions: in vivo, 360 h, dose 500-4500 mg/kg, time 15 day
# NCI-H1650 = assay: Antiproliferative activity against human NCI-H1650 cells incubated for 96 hrs by MTT assay; type: functional, cell-based; conditions: NCI-H1650, 96 h
# [8] = Half life in Sprague-Dawley rat at 2 mg/kg, iv measured upto 24 hrs by LC-MS/MS analysis; type: ADME, organism-based; conditions: in vivo
# Histone deacetylase 8 = Histone deacetylase 8 (Homo sapiens, UniProt Q9BY41); assay: Inhibition of human HDAC8 incubated for 10 mins followed by fluorogenic substrate addition by fluorescence based analysis
# Sequence of Histone deacetylase 8 (Q9BY41 whole entry): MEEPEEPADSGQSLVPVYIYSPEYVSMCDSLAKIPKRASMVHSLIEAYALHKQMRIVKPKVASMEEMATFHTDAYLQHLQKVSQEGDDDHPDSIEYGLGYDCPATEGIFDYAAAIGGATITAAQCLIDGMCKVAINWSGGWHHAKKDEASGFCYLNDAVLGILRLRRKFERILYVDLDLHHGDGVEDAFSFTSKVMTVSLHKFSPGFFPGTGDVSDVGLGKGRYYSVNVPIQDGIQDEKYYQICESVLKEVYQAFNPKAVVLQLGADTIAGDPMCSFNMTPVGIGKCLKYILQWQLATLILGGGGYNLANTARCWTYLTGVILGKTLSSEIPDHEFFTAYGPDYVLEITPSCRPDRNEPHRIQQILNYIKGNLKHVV
# Sequence of Histone deacetylase 4 (P56524 whole entry): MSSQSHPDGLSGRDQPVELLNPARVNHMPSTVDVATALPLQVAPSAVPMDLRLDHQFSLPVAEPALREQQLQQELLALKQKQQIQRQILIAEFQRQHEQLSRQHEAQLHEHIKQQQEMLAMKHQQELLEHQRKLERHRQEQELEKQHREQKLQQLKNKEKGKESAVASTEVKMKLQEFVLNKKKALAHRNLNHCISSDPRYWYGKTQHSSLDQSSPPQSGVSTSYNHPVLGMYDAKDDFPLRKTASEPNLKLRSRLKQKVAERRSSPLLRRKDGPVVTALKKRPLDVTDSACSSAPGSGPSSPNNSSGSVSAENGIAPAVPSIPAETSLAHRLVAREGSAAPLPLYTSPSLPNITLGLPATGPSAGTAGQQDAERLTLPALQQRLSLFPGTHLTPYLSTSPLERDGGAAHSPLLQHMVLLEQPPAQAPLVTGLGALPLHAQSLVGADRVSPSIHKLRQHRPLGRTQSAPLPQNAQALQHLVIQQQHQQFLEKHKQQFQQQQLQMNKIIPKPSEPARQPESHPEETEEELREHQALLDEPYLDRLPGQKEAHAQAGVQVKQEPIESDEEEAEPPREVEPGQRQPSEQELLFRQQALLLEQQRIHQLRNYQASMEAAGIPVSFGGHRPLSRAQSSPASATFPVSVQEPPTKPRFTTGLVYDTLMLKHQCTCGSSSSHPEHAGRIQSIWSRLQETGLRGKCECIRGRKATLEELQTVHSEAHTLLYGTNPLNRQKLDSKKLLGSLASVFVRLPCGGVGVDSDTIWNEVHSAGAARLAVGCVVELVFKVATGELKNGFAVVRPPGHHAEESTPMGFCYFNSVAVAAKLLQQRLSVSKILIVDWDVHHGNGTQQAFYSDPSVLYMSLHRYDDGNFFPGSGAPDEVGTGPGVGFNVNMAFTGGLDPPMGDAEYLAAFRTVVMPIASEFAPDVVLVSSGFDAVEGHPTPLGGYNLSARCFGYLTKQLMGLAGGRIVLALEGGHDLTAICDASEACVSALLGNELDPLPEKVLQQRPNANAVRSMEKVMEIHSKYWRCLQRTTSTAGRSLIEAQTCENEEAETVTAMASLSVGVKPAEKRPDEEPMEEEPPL
smiles,measurement,setting,value
COc1ccccc1/C=C1\CC(=O)N(CCCCCCC(=O)NO)C1=O,IC50,Histone deacetylase 4,> 5 µM
same,IC50,[1],72 nM
same,Activity,[2],Non-Toxic
same,Activity,DU-145,Dose-Dependent Effect
same,Activity,[3],Non-Toxic
same,AUC(0-inf),[4],1630 ng·h/mL
same,IC50,Histone deacetylase 5,> 5 µM
same,Activity,[5],Non-Toxic
same,Activity,[6],Non-Toxic
same,Activity,[7],Non-Toxic
same,IC50,NCI-H1650,3.56 µM
same,half-life,[8],187 min
same,IC50,Histone deacetylase 8,566 nM
